The results in this text go back to patent EP0655457A1, “MORANOLINE DERIVATIVE” (NIPPON SHINYAKU COMPANY, LIMITED, priority 1992, dated 1994).

This assay deals with ELAM-1 dependent adhesion of cultured human leukemia HL60 cells. Description: Binding of HL60 cells to IL-1β-activated human vascular endothelial cells (cell adhesion count). Type of assay: cell-based. Particulars: for Cell adhesion count (%): % of control (HL60 bound to IL-1β-activated HUVEC = 100%); for Cell adhesion count: adhered HL60 cells on HUVEC activated with IL-1β 10U/ml. As to the method: The effect of the synthetic sugar on the binding of activated human vascular endothelial cells and cultured human leukemia HL60 cells
Cultured human vascular endothelial cells were separated from the human umbilical vein by collagenase treatment and cultured in a culture flask coated with 1% gelatin or fibronectin at a concentration of 0.02 mg/cm². The growth medium used was prepared by adding 15% fetal calf serum (FCS), 45 mg/l ECGS, 90 mg/l heparin and 40 mg/l gentamicin to medium 199. The proliferation of the cultured human leukemia cell line HL60 was maintained using 10% FCS-containing RPMI-1640. Both cells were cultured in a CO₂ incubator (5% CO₂, 95% air) at 37°C.
The cultured human umbilical vein endothelial cells (HUVEC) were seeded on a 96-well microtiter plate which had been precoated with 0.1% gelatin and were incubated until the growth became confluent. After the cells were washed with 10% FCS-containing Dulbecco's modified Eagle's medium (DMEM), 100 µl of 10% FCS-DMEM containing recombinant human interleukin-1β (IL-1β) was added. The cells were then cultured in a CO₂ incubator at 37°C for 4 hours (activation). The HL60 cells were washed twice with serum-free DMEM, suspended in 0.5% glutaldehyde-containing Hanks' solution and fixed on wet ice for 30 minutes.
The fixed cells were washed twice with serum-free DMEM to remove the fixative. Then, 10% FCS-containing DMEM was added to the cells so as to provide a suspension of 2x10⁶ cells/ml, which was then preserved on wet ice till use.
The HUVEC activated above was washed with 10% FCS-containing DMEM and 50µl of 10% FCS-DMEM containing either anti-ELAM-1 antibody (BBA 2, British Biotechnology Ltd., Abinton) or the test substance was added followed by incubation at room temperature for 30 minutes. The fixed HL60 cells were added in 50 µl aliquots and the incubation was further continued at room temperature for 45 minutes.
After the unbound HL60 cells were washed off, the center of each well was photographed and the number of adhered cells in the photographing field was counted. With the number of HL60 cells bound to the IL-1β-activated HUVEC being taken as 100%, the effect of addition of the test substance was evaluated.

Where [1] appears, read: concentration of 500 µg/ml, referring to Table 2.
[2] abbreviates: concentration of 100 µg/ml, referring to Table 1.

As for `CC(=O)N1C(=O)C2(OCC3NCC(O)C(O)C3O)CC(O)C1C(C(O)C(O)CO)O2` [Example (8), 6-O-(5-acetamido-3,5-dideoxy-D-glycero-α-D-galacto-2-nonulopyranosylono-1',5-N-lactam)-1,5-dideoxy-1,5-imino-D-glucitol], under “Table 2, 50 µg/ml, n=6”, the “Cell adhesion count (%)” value is 89.6% and the Cell adhesion count is recorded as 473.7. Where the note is “Table 2, 500 µg/ml, n=6”, the “Cell adhesion count (%)” value is on record as 81.1% and the Cell adhesion count is on record as 428.5. Also, the “inhibit the adhesion of HL60 cells to activated HUVEC” value (shortened to “inhibit the adhesion of HL60 cells”) under setting [1] is 18.9%.

As for `CC(=O)N[C@H]1[C@H]([C@H](O)[C@H](O)CO)O[C@@](OC[C@@H]2[C@@H](O)[C@H](O)[C@@H](O)CN2C)(C(=O)O)C[C@@H]1O` [Example (9), O-(5-acetamido-3,5-dideoxy-D-glycero-α-D-galacto-2-nonulopyranosylonic acid)-(2→6)-1,5-dideoxy-N-methyl-1,5-imino-D-glucitol], for the setting “Table 1, 100 µg/ml, n=5”, the “Cell adhesion count (%)” value is listed as 49.1% and the Cell adhesion count was 188.4. Besides, the “inhibit the adhesion of HL60 cells” value under setting [2] was determined as 50.9%.

Consider “6-O-(5-acetamido-3,5-dideoxy-D-glycero-α-D-galacto-2-nonulopyranosylono-1',5-N-lactam)-1,5-dideoxy-1,5-imino-D-galactitol [Example (10)]”, for which the “Cell adhesion count (%)” value (Table 2, 50 µg/ml, n=6) is 93.4% and the “Cell adhesion count (%)” value (Table 2, 500 µg/ml, n=6) was 82.5%. Besides, the Cell adhesion count is, setting by setting: (Table 2, 50 µg/ml, n=6) 494.7; (Table 2, 500 µg/ml, n=6) 436.2. Further, the “inhibit the adhesion of HL60 cells” value under setting [1] was 17.5%.

`CC(=O)N[C@H]1[C@H]([C@H](O)[C@H](O)CO)O[C@@](OC[C@@H]2[C@H](O)[C@H](O)[C@@H](O)CN2C)(C(=O)O)C[C@@H]1O` [Example (11), O-(5-acetamido-3,5-dideoxy-D-glycero-α-D-galacto-2-nonulopyranosylonic acid)-(2→6)-1,5-dideoxy-N-methyl-1,5-imino-D-galactitol]: where the note is “Table 1, 100 µg/ml, n=5”, the “Cell adhesion count (%)” value was found to be 40.4% and the Cell adhesion count was 155.0. Besides, the “inhibit the adhesion of HL60 cells” value under setting [2] amounted to 59.6%.
